According to patent US20070048367A1, “Herbal composition for treating morning sickness” (MOM Enterprises, Inc., priority 2005, published 2007):
Counter-ions that a name gives are not always drawn.

Test system: morning sickness
Assay: Doctor survey: composition compared with other morning sickness remedies tried during the same pregnancy
Type: in vivo, pregnant patients
Conditions: for Patients' preference, composition versus the named remedy: overall, in words
From the text: Doctors across the United States were each sent four bottles of the composition described herein, and were invited to allow their pregnant patients to try the composition as a remedy for morning sickness. The same doctors were also sent a survey inquiring about the patients'experience with the composition, the other remedies used, and how the composition disclosed herein compared with the other remedies.
The survey also asked about other known morning sickness remedies. […] Some of the other remedies included Reglan® (metochlopramide, commercially available from Robins Co., Richmond, Va.), Emetrol® (dextrose, levulose, phosphoric acid, commercially available from Pfizer, Inc., New York, N.Y.), Mylanta® (calcium carbonate, magnesium hydroxide, commercially available from Johnson & Johnson, Merck Consumer Pharmaceuticals Co., Fort Washington, Pa.), Premesis Rx® (calcium carbonate, vitamin B12, folic acid, vitamin B6, commercially available from KV Pharmaceutical Co., St. Louis, Mo.), Compazine® (prochlorperazine, commercially available from SmithKline Beecham, Philadelphia, Pa.), and meclizine (commercially available under the tradename Antivert® from Pfizer, Inc., New York, N.Y.).
Regardless of whether they tried one or more remedies besides the disclosed composition, each doctor was asked, for each patient: did the composition work 1) better than other products or combinations, 2) better than some, but not as well as others, or 3) not as well as other products or combinations.
Another question in the survey asked the doctors what products each patient took besides the composition, and then whether the composition worked 1) better than other products or combinations, 2) better than some, but not as well as others, or 3) not as well as other products or combinations.

[1] = composition versus the named remedy, the two taken alone or with other remedies
[2] = patients who tried only the named remedy or combination besides the composition
[3] = composition versus the named remedy, the two taken alone or with other remedies, hydrochloride

Row | Compound | Percent of Patients for whom the Composition Did Not Work as Well [1] [%] | Percent of Patients for whom the Composition worked Better [1] [%] | Patients for whom the composition definitely worked better than the remedy/remedies tried in addition [2] | Patients' preference, composition versus the named remedy | also measured
1 | CN1CCN(CCCN2c3ccccc3Sc3ccc(Cl)cc32)CC1 [Compazine ®, prochlorperazine] | 29 | 43 | better for 3 patients |  | 
2 | Cc1cccc(CN2CCN(C(c3ccccc3)c3ccc(Cl)cc3)CC2)c1 (stereo not drawn) [Meclizine ®, meclizine] | 0 | 100 |  |  | 
3 | CC(CN1c2ccccc2Sc2ccccc21)N(C)C (stereo not drawn) [Phenergan ®, promethazine hydrochloride] |  |  | better for 4 patients | prefer | Percent of Patients for whom the Composition Did Not Work as Well [3]: 32%; Percent of Patients for whom the Composition worked Better [3]: 40%
4 | CC(CN1c2ccccc2Sc2ccccc21)N(C)C (stereo not drawn) [Promethazine ®, Promethazine] | 100 | 0 |  |  | 
5 | CCN(CC)CCNC(=O)c1cc(Cl)c(N)cc1OC [Reglan ®, metochlopramide] | 60 | 0 |  |  | 
6 | Cc1ncc(CO)c(CO)c1O.Cl [Vitamin B6, pyridoxine hydrochloride] |  |  |  | like the composition better | Patients for whom the composition definitely worked better than the remedy/remedies tried in addition (in vivo): better for 7 patients; Percent of Patients for whom the Composition Did Not Work as Well (in vivo): 11%
7 | Cc1nccn1CC1CCc2c(c3ccccc3n2C)C1=O (stereo not drawn) [Zofran ®, ondansetron hydrochloride] |  | 36 | better for 5 patients | prefer | Percent of Patients for whom the Composition Did Not Work as Well [3]: 42%; Percent of Patients for whom the Composition Did Not Work as Well (composition versus the named remedy, the two taken alone or with other remedies, listed as Zofran®, hydrochloride): at least 36%
